Assay results taken from patent US20240009174A1, “METHODS FOR DISRUPTING MITOCHONDRIAL UNFOLDED PROTEIN RESPONSE” (Health Research, Inc., priority 2020, published 2024).

Tests used:
TKO PCa cells = experiment: mitoROS, mitoMass and apoptosis in TKO PCa cells; format: cell-based, mouse; details: data not shown
Procedure: Identification of novel inhibitor of HSP60-ClpP interaction that disrupts UPR^mt function and induces PCa cell death. Having shown that two arms of UPR^mt, HSP60 chaperonin and ClpP protease interact and play critical role in PCa cell survival, an in silico analysis was performed and a small molecule library (developed by Enamine Ltd) was screened to identify drugs targeting the apical domain of HSP60 critical for its interaction with ClpP. 9 compounds (A-I) were identified and screened for their cell death inducing potential in PCa cells (data not shown). […] Colony forming ability of PCa cells was inhibited by DCEM1 treatment (data not shown).

LNCaP and PC-3 cells [1] = experiment: AMPK and mTOR signaling pathways / autophagy activation; format: cell-based; details: PCa cells
Procedure: (§1) FIG. 7. Pharmacological inhibition of HSP60-ClpP interaction induces metabolic stress in PCa cells. (A) LNCaP and PC-3 cells were pre-treated with either rotenone or antimycin-A followed by DCEM1 treatment and mitochondrial ROS was analyzed as described in material and methods (data represented as fold change compared to control). In (A), the bars in each series from left to right are control, DCEM1, Rot+DCEM1, Anti A+DCEM1, Rot, and Anti A (B) ClpP protein was over-expressed in LNCaP and PC-3 cells followed by DCEM1 treatment and mitochondrial ROS was analyzed as described in material and methods (Data represented as fold change compared to control). In (B), the bars in each series from left to right are DMSO and DCEM1. (C) ClpP protein was over-expressed in LNCaP and PC-3 cells followed by DCEM1 treatment and level of poly-ubiquitinated protein was analyzed by western blotting. (D) ClpP protein was over-expressed in LNCaP and PC-3 cells followed by DCEM1 treatment and DEVDase activity was analyzed as described in material and methods (Data represented as fold change compared to control). In (D), the bars in each series from left to right are DMSO and DCEM1. (E) Mitochondrial membrane potential (mitoMP) was analyzed in LNCaP and PC-3 cells treated with DCEM1 as described in material and methods (Data represented as fold change compared to control). In (E), the bars in each series from left to right are DMSO, 5, and 10. (F) ATP level was analyzed in LNCaP and PC-3 cells treated with DCEM1 as described in material and methods (Data represented as fold change compared to control). In (F), the bars in each series from left to right are 0, 5, 10, and 20. (G) Oxygen consumption rate was analyzed in PC-3 cells treated with DCEM1 as described in material and methods and represented as basal and maximal respiration rate; Spare respiratory capacity and ATP production potential. […]
Abrogation of HSP60-ClpP interaction by DCEM1 induces metabolic stress in PCa cells. […] Since ATP depletion/reduction induces autophagy, autophagy activation in PCa cells was analyzed in response to DCEM1 treatment.

LNCaP and PC-3 cells [2] = experiment: Cellular ATP level; format: cell-based
Procedure: as §1, with “In (B), the bars in each series from left to right are DMSO and DCEM1.” left out, “In (D), the bars in each series from left to right are DMSO and DCEM1.” left out, “In (E), the bars in each series from left to right are DMSO, 5, and 10.” left out, “control).” for “control). In (F), the bars in each series from left to right are 0, 5, 10, and 20. (G) Oxygen consumption rate was analyzed in PC-3 cells treated with DCEM1 as described in material and methods and represented as basal and maximal respiration rate; Spare respiratory capacity and ATP production potential.”

## CCOc1cc(CNCc2nc3ccccc3[nH]2)ccc1OCc1cccs1 [DCEM1]
TKO PCa cells; cells established from TKO mouse prostate tumor tissue
  mitoROS and mitoMass in TKO PCa cells: induced mitoROS and mitoMass
TKO PCa cells
  apoptotic cell death in TKO PCa cells: induced robust apoptotic cell death
LNCaP and PC-3 cells [1]
  ULK1 phosphorylation: enhanced phosphorylation at serine 555 residue and decreased phosphorylation at serine 757 residue
  mTOR signaling: inhibited mTOR signaling
  p-AMPKa levels and LC3B cleavage: Robust increase
LNCaP and PC-3 cells [2]
  cellular ATP: reduction of cellular ATP
